According to PubChem BioAssay AID1259407 (Chemical Carcinogenesis Research Information System (CCRIS), 2018):
Active and inactive are the calls of the source. The rule behind the calls is not given here.

Tested on: CCRIS mutagenicity, Ames/micronucleus/aberration tests
Experiment: CCRIS mutagenicity studies
[1] = Test System: AMES SALMONELLA TYPHIMURIUM, Strain/Indicator: TA98, Metabolic Activation: NONE, Method: PREINCUBATION
[2] = Test System: AMES SALMONELLA TYPHIMURIUM, Strain/Indicator: TA98, Metabolic Activation: RAT, LIVER, S-9, AROCLOR 1254, Method: STANDARD PLATE
[3] = Test System: AMES SALMONELLA TYPHIMURIUM, Strain/Indicator: TA100, Metabolic Activation: NONE, Method: PREINCUBATION
[4] = Test System: AMES SALMONELLA TYPHIMURIUM, Strain/Indicator: TA98, Metabolic Activation: NONE, Method: STANDARD PLATE
[5] = Test System: AMES SALMONELLA TYPHIMURIUM, Strain/Indicator: TA100, Metabolic Activation: NONE, Method: STANDARD PLATE

**Q.** Which results are given for `O=[N+]([O-])c1cccc2cccc([N+](=O)[O-])c12`?
**A.** mutagenic call (End Point: IN VITRO CHROMOSOMAL ABERRATIONS, Test System: CHL CELLS, Metabolic Activation: NONE): inactive; negative; mutagenic call (End Point: IN VITRO CHROMOSOMAL ABERRATIONS, Test System: CHL CELLS, Metabolic Activation: RAT, LIVER, S-9, SODIUM PHENOBARBITAL AND 5,6-BENZOFLAVONE): active; positive (structural changes); mutagenic call (Test System: AMES SALMONELLA TYPHIMURIUM, Strain/Indicator: TA98, Metabolic Activation: HAMSTER, LIVER, S-9, AROCLOR 1254, FLAVIN MONONUCLEOTIDE, Method: PREINCUBATION): active; positive; mutagenic call (Test System: AMES SALMONELLA TYPHIMURIUM, Strain/Indicator: TA98, Metabolic Activation: HAMSTER, LIVER, S-9, AROCLOR 1254, Method: PREINCUBATION): active; positive; mutagenic call [1]: active; positive; mutagenic call (Test System: AMES SALMONELLA TYPHIMURIUM, Strain/Indicator: TA98, Metabolic Activation: RAT LIVER S-9, PHENOBARBITAL AND BETA-NAPHTHOFLAVONE, Method: PREINCUBATION): active; positive; mutagenic call (Test System: AMES SALMONELLA TYPHIMURIUM, Strain/Indicator: TA98, Metabolic Activation: RAT, LIVER, S-9, AROCLOR 1254, FLAVIN MONONUCLEOTIDE, Method: PREINCUBATION): active; positive; mutagenic call [2]: active; positive; mutagenic call [3]: active; positive; mutagenic call (Test System: AMES SALMONELLA TYPHIMURIUM, Strain/Indicator: TA100, Metabolic Activation: RAT LIVER S-9, PHENOBARBITAL AND BETA-NAPHTHOFLAVONE, Method: PREINCUBATION): active; positive; mutagenic call (Test System: AMES SALMONELLA TYPHIMURIUM, Strain/Indicator: TA1535, Metabolic Activation: NONE, Method: PREINCUBATION): inactive; negative; mutagenic call (Test System: AMES SALMONELLA TYPHIMURIUM, Strain/Indicator: TA1535, Metabolic Activation: RAT LIVER S-9, PHENOBARBITAL AND BETA-NAPHTHOFLAVONE, Method: PREINCUBATION): inactive; negative; mutagenic call (Test System: AMES SALMONELLA TYPHIMURIUM, Strain/Indicator: TA1537, Metabolic Activation: NONE, Method: PREINCUBATION): active; positive; mutagenic call (Test System: AMES SALMONELLA TYPHIMURIUM, Strain/Indicator: TA1537, Metabolic Activation: RAT LIVER S-9, PHENOBARBITAL AND BETA-NAPHTHOFLAVONE, Method: PREINCUBATION): active; positive; mutagenic call (Test System: AMES SALMONELLA TYPHIMURIUM, Strain/Indicator: TA1538, Metabolic Activation: NONE, Method: PREINCUBATION): active; positive; mutagenic call (Test System: AMES SALMONELLA TYPHIMURIUM, Strain/Indicator: TA1538, Metabolic Activation: RAT LIVER S-9, PHENOBARBITAL AND BETA-NAPHTHOFLAVONE, Method: PREINCUBATION): active; positive; mutagenic call (Test System: E.COLI, Strain/Indicator: WP2UVRA, Metabolic Activation: NONE, Method: PREINCUBATION): inactive; negative; mutagenic call (Test System: E.COLI, Strain/Indicator: WP2UVRA, Metabolic Activation: RAT LIVER S-9, PHENOBARBITAL AND BETA-NAPHTHOFLAVONE, Method: PREINCUBATION): active; positive

**Q.** `CC(C)C(N)C(=O)O` (stereo not given) was tested. Which mutagenic call (Test System: AMES SALMONELLA TYPHIMURIUM, Strain/Indicator: TA98, Metabolic Activation: RAT LIVER S-9, CHLOROPHENE, Method: STANDARD PLATE (COMPOUND HEATED AT 250 DEGREES CELSIUS FOR 20 MIN)) did it give?
**A.** Its mutagenic call is “inactive; negative”.

**Q.** Which mutagenic call [1] does the source give for `O=Nn1cnc(CC(=O)NO)c1` here?
**A.** The mutagenic call was “active; positive”.

**Q.** What about the mutagenic call [3] of the same compound?
**A.** Its mutagenic call is “active; positive”.

**Q.** For `FC(Cl)C(F)(F)C(F)(F)Cl` (stereo not given), which mutagenic call [4] is on record?
**A.** The mutagenic call was “inactive; negative”.

**Q.** What about the mutagenic call (Test System: AMES SALMONELLA TYPHIMURIUM, Strain/Indicator: TA98, Metabolic Activation: RAT LIVER S-9, PHENOBARBITAL, 5,6-BENZOFLAVONE, Method: STANDARD PLATE) of the same compound?
**A.** Its mutagenic call is “inactive; negative”.

**Q.** And the mutagenic call [5]?
**A.** Its mutagenic call is “inactive; negative”.

**Q.** What about the mutagenic call (Test System: AMES SALMONELLA TYPHIMURIUM, Strain/Indicator: TA100, Metabolic Activation: RAT LIVER S-9, PHENOBARBITAL, 5,6-BENZOFLAVONE, Method: STANDARD PLATE) of the same compound?
**A.** Its mutagenic call is “inactive; negative”.

**Q.** And the mutagenic call (Test System: AMES SALMONELLA TYPHIMURIUM, Strain/Indicator: TA1535, Metabolic Activation: NONE, Method: STANDARD PLATE)?
**A.** The mutagenic call was “inactive; negative”.

**Q.** What about the mutagenic call (Test System: AMES SALMONELLA TYPHIMURIUM, Strain/Indicator: TA1535, Metabolic Activation: RAT LIVER S-9, PHENOBARBITAL, 5,6-BENZOFLAVONE, Method: STANDARD PLATE) of the same compound?
**A.** Its mutagenic call is “inactive; negative”.

**Q.** And the mutagenic call (Test System: AMES SALMONELLA TYPHIMURIUM, Strain/Indicator: TA1537, Metabolic Activation: NONE, Method: STANDARD PLATE)?
**A.** The mutagenic call was “inactive; negative”.

**Q.** And the mutagenic call (Test System: AMES SALMONELLA TYPHIMURIUM, Strain/Indicator: TA1537, Metabolic Activation: RAT LIVER S-9, PHENOBARBITAL, 5,6-BENZOFLAVONE, Method: STANDARD PLATE)?
**A.** Its mutagenic call is “inactive; negative”.

**Q.** And the mutagenic call (Test System: ESCHERICHIA COLI, Strain/Indicator: WP2 UVR A, Metabolic Activation: NONE, Method: STANDARD PLATE)?
**A.** Its mutagenic call is “inactive; negative”.

**Q.** What about the mutagenic call (Test System: ESCHERICHIA COLI, Strain/Indicator: WP2 UVR A, Metabolic Activation: RAT LIVER S-9, PHENOBARBITAL, 5,6-BENZOFLAVONE, Method: STANDARD PLATE) of the same compound?
**A.** The mutagenic call was “inactive; negative”.

**Q.** And the mutagenic call (Test System: UDS RAT HEPATOCYTES IN VIVO, Strain/Indicator: THYMIDINE INCORPORATION, Metabolic Activation: NONE, Method: INHALATION (6HR, NOSE-ONLY, 2-OR 16-HR HARVEST)/AUTORADIOGRAPHY)?
**A.** The mutagenic call was “inactive; negative”.

**Q.** `Cc1ccc2cc3ccccc3cc2c1` was tested. Which mutagenic call (Test System: AMES SALMONELLA TYPHIMURIUM, Strain/Indicator: TA97, Metabolic Activation: NONE, Method: STANDARD PLATE) did it give?
**A.** Its mutagenic call is “inactive; negative”.

**Q.** And the mutagenic call (Test System: AMES SALMONELLA TYPHIMURIUM, Strain/Indicator: TA97, Metabolic Activation: RAT, LIVER, S-9, PCB, Method: STANDARD PLATE)?
**A.** Its mutagenic call is “active; positive”.

**Q.** What about the mutagenic call [4] of the same compound?
**A.** The mutagenic call was “inactive; negative”.

**Q.** And the mutagenic call [2]?
**A.** Its mutagenic call is “inactive; negative”.

**Q.** And the mutagenic call (Test System: AMES SALMONELLA TYPHIMURIUM, Strain/Indicator: TA98, Metabolic Activation: RAT, LIVER, S-9, PCB, Method: STANDARD PLATE)?
**A.** The mutagenic call was “inactive; negative”.

**Q.** What about the mutagenic call [5] of the same compound?
**A.** Its mutagenic call is “inactive; negative”.

**Q.** What about the mutagenic call (Test System: AMES SALMONELLA TYPHIMURIUM, Strain/Indicator: TA100, Metabolic Activation: RAT, LIVER, S-9, AROCLOR 1254, Method: STANDARD PLATE) of the same compound?
**A.** Its mutagenic call is “inactive; negative”.

**Q.** What about the mutagenic call (Test System: AMES SALMONELLA TYPHIMURIUM, Strain/Indicator: TA100, Metabolic Activation: RAT, LIVER, S-9, PCB, Method: STANDARD PLATE) of the same compound?
**A.** Its mutagenic call is “inactive; negative”.
